Test results: US8802675B2, “Neuroprotective multifunctional compounds and pharmaceutical compositions comprising them” (priority 2009, dated 2014)

Legend:
Assay type in all cases: biochemical
[1] = molecular target: T1, butyrylcholinesterase (BuChE) (Rattus norvegicus, UniProt Q9JKC1); test: Butyrylcholinesterase inhibition in rat brain homogenates (Ellman); settings: mean SEM, n=3 in triplicates
T1 construct: total cholinesterase (ChE) and butyrylcholinesterase (BuChE) activities in rat brain homogenates; from tissue; host or cells: brain homogenate (10% w/v) of adult Wistar rats
T1 sequence (Q9JKC1 24-597): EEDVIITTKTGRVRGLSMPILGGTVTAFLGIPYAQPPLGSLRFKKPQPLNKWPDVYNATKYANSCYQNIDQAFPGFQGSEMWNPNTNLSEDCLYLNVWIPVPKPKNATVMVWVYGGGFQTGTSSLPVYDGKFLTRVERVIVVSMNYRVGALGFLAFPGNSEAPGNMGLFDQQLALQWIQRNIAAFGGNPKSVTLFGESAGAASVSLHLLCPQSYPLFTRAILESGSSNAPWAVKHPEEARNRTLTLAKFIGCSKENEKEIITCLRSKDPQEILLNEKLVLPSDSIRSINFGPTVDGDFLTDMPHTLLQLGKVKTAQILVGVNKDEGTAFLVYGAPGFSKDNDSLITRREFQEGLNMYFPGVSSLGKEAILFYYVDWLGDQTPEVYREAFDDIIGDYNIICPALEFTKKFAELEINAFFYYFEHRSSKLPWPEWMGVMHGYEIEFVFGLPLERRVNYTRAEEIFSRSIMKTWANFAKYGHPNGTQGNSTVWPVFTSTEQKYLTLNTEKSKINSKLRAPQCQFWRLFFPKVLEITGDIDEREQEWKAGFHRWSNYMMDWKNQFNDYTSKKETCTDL
Description: Cholinesterase activity was determined in rat brain homogenate following incubation with varying concentrations of the multifunctional pro-chelators of the invention (also referred to herein as “carbamates”).
Ellman's colorimetric method was adapted for determination of total cholinesterase (ChE) and butyrylcholinesterase (BuChE) activities in rat brain homogenates. Brain tissue from adult Wistar rats was homogenized at 2% w/v (or 10% w/v, for BuChE) in 0.1 M sodium phosphate buffer, pH 7.4, with added NaCl 58.5 g/l and Triton X-100 0.05% v/v. Aliquots of homogenate (20 μl) were incubated with the test compounds for designed time intervals in phosphate buffer pH 7.4, before addition of 5,5′-dithiobis(2-nitrobenzoic) acid and either 1 mM acetylthiocholine iodide or 10 mM butyrylthiocholine iodide (Sigma, St. Louis, Mo.). The reaction was run at 37° C. in a final volume of […] in 96-well microplates and was followed at 412 nm for 5 min with a plate reader. In every experiment, cholinesterase-independent (nonspecific) substrate hydrolysis was determined by including one experimental group treated with tacrine 30 μM. Appropriate tissue and reagent blanks were also included. Reaction velocities were determined in three or four replicates per condition; these were averaged and expressed as percent activity relative to control (solvent), after subtracting the rate of nonspecific hydrolysis.
The results are the mean SEM, n=3 in triplicates. ND—not determined.

[2] = test system: ChE from rat brain homogenates; test: Time course of total ChE inhibition at 1 μM versus rivastigmine; settings: for preincubation time to maximum (peak) inhibition on total ChE: 1 μM compound; for ChE inhibition compared with rivastigmine and other carbamates: 1 μM, time course
Description: The new carbamates of the present invention are expected to act as rivastigmine and inhibit ChE activity. […] Enzyme activity was determined with Ellman's colorimetric method after addition of substrate, and the results are shown in FIGS. 8A-8B.

[3] = molecular target: T2, rat brain cholinesterase (total ChE) (Rattus norvegicus, UniProt P37136); test: Kinetics of irreversible cholinesterase inhibition (Kitz-Wilson); settings: for kinact: pH 7.4, read-out: k+2 (carbamylation rate constant); for kinact/KI: pH 7.4, read-out: ki (second-order rate inhibition constant, approximated by k+2/Ki)
T2 construct: rows headed: Ki (dissociation constant for EI); other: rat brain total ChE; mean of 3-4 experiments; k+2 (carbamylation rate constant); other: from ki; rate of carba
T2 sequence (P37136 32-614): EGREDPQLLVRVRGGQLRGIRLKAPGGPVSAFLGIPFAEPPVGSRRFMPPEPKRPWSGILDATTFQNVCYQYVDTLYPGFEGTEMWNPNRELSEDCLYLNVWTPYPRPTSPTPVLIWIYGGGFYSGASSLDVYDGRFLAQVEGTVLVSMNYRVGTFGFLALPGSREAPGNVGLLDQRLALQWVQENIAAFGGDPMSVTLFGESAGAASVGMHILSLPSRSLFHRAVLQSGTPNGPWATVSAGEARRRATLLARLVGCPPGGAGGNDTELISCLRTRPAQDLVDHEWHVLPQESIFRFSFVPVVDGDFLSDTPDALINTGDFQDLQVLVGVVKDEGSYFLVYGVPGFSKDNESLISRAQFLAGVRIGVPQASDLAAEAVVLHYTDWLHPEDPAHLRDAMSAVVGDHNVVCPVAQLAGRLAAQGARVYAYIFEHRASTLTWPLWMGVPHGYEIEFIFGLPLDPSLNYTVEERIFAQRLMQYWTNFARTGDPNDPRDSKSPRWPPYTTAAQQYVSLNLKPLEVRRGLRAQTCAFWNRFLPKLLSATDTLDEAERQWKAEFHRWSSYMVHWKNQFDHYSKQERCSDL
Description: To determine kinetic constants of irreversible inhibition, cholinesterase from rat brain homogenates was incubated with the multifunctional compounds of the invention for designed time intervals in phosphate buffer pH 7.4.
The residual cholinesterase activity was immediately measured with the Ellman's colorimetric method after addition of 5,5′-dithiobis(2-nitrobenzoic) acid and 1 mM acetylthiocholine iodide. The inhibition kinetics were assessed according to Kitz-Wilson equation:
[formula] wherein: E represents the enzyme; I represents the intact carbamate (inhibitor); EI is the initial reversible enzyme complex; E* is the carbamylated enzyme; Ki represents the dissociation constant for EI; k+2 is the carbamylation rate constant and k+3 is the decarbamylation rate constant; kapp is the pseudo-first-order inhibition rate constant; ki, the second-order rate inhibition constant, is approximated by k+2/Ki. Under experimental condition [I]>>[E0].
According to equation (2), the logarithm of the ratio of the residual cholinesterase activity (E) and the initial cholinesterase activity (E0) is plotted against the time of incubation. The slopes of the lines representing kapp were determined by linear regression.
The slopes of the lines represent the pseudo-first-order inhibition rate constant (kapp) determined from linear regression analysis. […] The carbamylation rate constant (k+2) was obtained from the y-intercept, and the dissociation constant ([…] was obtained from the slope of the line multiplied by k+2 as described in Materials and Methods.
From these lines, the values of kapp were calculated based on Equation (2) of the Kitz-Wilson equations (see Material and Methods). […] The carbamylation rate constant k+2 is a measure of inactivation of ChE.

## C#CCN(C)Cc1ccc(OC(=O)N(C)CC)c2ncccc12 [Compound 3, 5-((methyl(propargyl)amino)methyl)quinolin-8-yl ethyl(methyl)carbamate]
[1]
  IC50: 60.7 ± 5.33 µM
[2]
  preincubation time to maximum (peak) inhibition on total ChE: ≤ 1.5 h
  ChE inhibition compared with rivastigmine and other carbamates: far less potent than the other carbamates
[3]
  kinact: 0.0045 s⁻¹
  kinact/KI: 39 M⁻¹ s⁻¹

## C#CCN(C)Cc1ccc(OC(=O)N2CCCC2)c2ncccc12 [Compound 5, 5-((methyl(propargyl)amino)methyl)quinolin-8-yl pyrrolidine-1-carboxylate]
[1]
  IC50: 31.2 ± 6.1 µM
[2]
  preincubation time to maximum (peak) inhibition on total ChE: ≤ 3 h
  ChE inhibition compared with rivastigmine and other carbamates: far less potent than the other carbamates
[3]; from ki
  potency in inhibiting ChE relative to rivastigmine: half potent
[3]
  kinact: 0.00283 s⁻¹
  kinact/KI: 41 M⁻¹ s⁻¹

## C#CCN(C)Cc1ccc(OC(=O)N2CCN(Cc3ccccc3)CC2)c2ncccc12 [Compound 13, 5-((methyl(propargyl)amino)methyl)quinolin-8-yl 4-benzyl piperazine-1-carboxylate]
[1]
  IC50: 46 ± 3.5 µM
[2]
  ChE inhibition compared with rivastigmine and other carbamates: as potent as rivastigmine
[3]
  kinact: 0.00167 s⁻¹
  kinact/KI: 168 M⁻¹ s⁻¹

## C#CCC1CCN(Cc2ccc(OC(=O)N(C)C)c3ncccc23)CC1 [Compound 23, 5-((4-(propargyl)piperidin-1-yl)methyl)quinolin-8-yl dimethylcarbamate]
[1]
  IC50: 42.6 ± 6.67 µM
[2]
  preincubation time to maximum (peak) inhibition on total ChE: 2 h
  ChE inhibition compared with rivastigmine and other carbamates: increasingly greater inhibition
[3]
  kinact: 0.00233 s⁻¹
  kinact/KI: 242 M⁻¹ s⁻¹
